This note sets out measurements from US20090233964A1, “METHODS FOR IMPROVING THE PHARMACOKINETICS OF HIV INTEGRASE INHIBITORS” (priority 2005, published 2009).

By AUC is commonly meant the area under the concentration-time curve, a measure of exposure.

Series [1] is described as follows: Example 1: plasma pharmacokinetics of Compound 1 alone and coadministered with RTV in healthy subjects. Format: in vivo, human. The note with it: 100 mg. From the text:
The study was an open-label, fixed-sequence, crossover, pharmacokinetic study with 12 subjects. The subjects were healthy males and non-pregnant, nonlactating females between 18 and 45 years of age, inclusive. The duration of the study was 20 days, with Period 1 of Days 1 to 10 and Period 2 of days 11 to 20. Follow-up contact was on day 27.

A short description of series [2]: Example 1: multiple-dose safety of Compound 1 alone and with RTV. The class given is in vivo, human. As to the method: The single-dose and multiple-dose pharmacokinetics of Compound 1 were also determined. The multiple-dose safety of Compound 1 administered alone and with RTV was also determined. Safety: Safety was evaluated by assessment of clinical laboratory tests at baseline and at various time points during the study; periodic physical examinations, including vital signs; and documentation of adverse events throughout the study. Safety: No statistical inference was performed for safety data in this pharmacokinetic study.

Series [3] has as its system HIV-1. Briefly: Example 2: antiviral activity (HIV-1 RNA reduction) and exposure-response in subjects infected with HIV-1. The class given is in vivo, human. The method, then:
At screening, subjects were to have a plasma HIV-1 RNA load of ≧10,000 to ≦300,000 copies/mL and a CD4+ cell count of ≧200 cells/mm^3.
Safety, tolerability, pharmacokinetics, and efficacy were monitored through Day 21 after dosing. […] The placebo group in Cohort 5 also received 100 mg of RTV.
The duration of the study was 21 days, with 10 days of treatment and 11 days of follow-up. […] Matching placebo was administered orally under fed conditions. For Cohort 5 only, 100 mg RTV capsules were coadministered orally under fed conditions.
Efficacy: The primary efficacy endpoint was the maximum HIV-1 RNA reduction (log10 copies/mL) from baseline through Day 11. The maximum reduction for an individual subject was the maximum drop among changes from baseline between Days 2 and 11.
The 2 subjects who received placebo+100 mg RTV were treated as a separate group. HIV-1 RNA values below the detection limit (50 copies/mL) were entered as 49 copies/mL.

For series [4] the following is noted: human, in vivo. The method, then:
Safety, tolerability, pharmacokinetics, and efficacy were monitored through Day 21 after dosing. The active treatments in the 5 cohorts were as follows: […] The duration of the study was 21 days, with 10 days of treatment and 11 days of follow-up. […] Matching placebo was administered orally under fed conditions. For Cohort 5 only, 100 mg RTV capsules were coadministered orally under fed conditions. […] Pharmacokinetics: The pharmacokinetic parameters of Compound 1 in plasma and peripheral blood mononuclear cells were summarized using descriptive statistics.

For series [5] the following is noted: human, in vivo. As to the method:
Safety, tolerability, pharmacokinetics, and efficacy were monitored through Day 21 after dosing. The active treatments in the 5 cohorts were as follows: […] Safety: Adverse events, vital signs, electrocardiogram, ophthalmologic examination, and clinical laboratory tests were evaluated for safety. Safety: The proportion of subjects with adverse events was summarized by treatment, system organ class and preferred term for treatment-emergent adverse events, treatment-related adverse events, serious adverse events, and adverse events leading to study drug discontinuation. Adverse events were coded using the Medical Dictionary for Regulatory Activities (MedDRA®) version 8.1. […] Laboratory results were expressed on the original measurement scale and in terms of the toxicity grade. Changes from baseline in quantitative laboratory tests were summarized by visit.
The source holds these as a separate data set.

A short description of series [6]: Example 3: Compound 1 pharmacokinetics at a range of RTV doses. Format: in vivo, human. As to conditions: Compound 1 125 mg QD + 200 mg RTV; mean. As to the method: (§1) The effects of a range of RTV doses (20, 50, 100, and 200 mg once daily) on hepatic cytochrome P450 3A (CYP3A) activity were also evaluated using a CYP3A substrate.
(§2) A randomized, open label, single-center, multiple-dose, two group, Phase 1 study was conducted (24 subjects (16 evaluable) subjects in two groups; 12 (8 evaluable) in each group) with an approximately even distribution of healthy male and non-pregnant, non-lactating female subjects aged between 18-45, inclusive
(§3) The population mean slope was estimated along with a corresponding 90% CI. This study was performed in compliance with the guidelines of Good Clinical Practices (GCPs).

For series [7] the following is noted: in vivo. As to the method:
Pharmacokinetic (PK) blood draws were performed on days 7, 17, and 27.

The nature of series [8]: Example 4: safety of FTC/TDF and Compound 1/r. Format: in vivo, human. The note with it: Compound 1/r and their co-administration.
Series [9] can be described thus: Example 5: pharmacokinetic drug-drug interaction of zidovudine and Compound 1/r. Format: in vivo, human. The note with it: for AUCtau, Cmax, Ctau (Compound 1 only) 90% CI of GMR (co-administration:alone): Compound 1/r 200/100 mg QD plus ZDV 300 mg BID, with a meal, bounds 70% to 143%. From the text:
Zidovudine is a NRTI used in HIV patients.

Series [10] is described as follows: Example 7: effect of food on pharmacokinetics of Compound 1 in Japanese male healthy volunteers. The class given is in vivo, human. The note with it: 400 mg. As to the method: Subjects in the 400 mg fasted cohort received an additional 400 mg dose with breakfast after a washout period (generally a minimum of ten days after the initial administration). The interval of ten days between the two doses was considered appropriate for eliminating any within subject carryover effects. […] Doses were administered at similar times for each subject in each treatment period. […] Plasma samples were isolated from healthy subjects administered with Compound 1. The plasma samples were extracted by solid phase extraction using Empore™ Disk Plate (C8SD), and then measured by high-performance liquid chromatography/tandem mass spectrometry (LC/MS/MS) (HPLC model 2795 separations module from Waters; mass spectrometer model API4000 from MDS SCIEX). Ionization and detection were performed with electrospray ionization and positive ion detection with multiple reaction monitoring, respectively. […] To 50 μL of plasma samples spiked with […] each of 90% acetonitrile and 20 mmol/L ammonium formate-formic acid buffer (pH 3.0)/acetonitrile (10:90, v/v), 10 μL each of internal standard solution was added. To these samples, 200 μL of 0.1% formic acid in 10% acetonitrile was added. These solutions were then mixed for 10 seconds and centrifuged at 10,000 rpm for 5 minutes at 4° C. […] Then, 10 μL of each solution was injected into the LC/MS/MS system and analyzed.

Series [11] in a line: Example 7: safety of single 400 mg dose of Compound 1. The class given is in vivo, human. The note with it: single oral dose, Japanese male healthy volunteers. The method, then: The subjects were admitted to the medical institution in the afternoon on the day before administration (“Day −1”). […] The subjects were discharged the day after administration (“Day 2”). Thus, the subjects were hospitalized for a total of three days. Follow up assessment for safety was performed 6 to 8 days after administration (“Days 7 to 9”).

For series [12], the system named is hepatic cytochrome P450 3A (CYP3A) activity. Briefly: Example 3: IV midazolam (MDZ) pharmacokinetics as probe for CYP3A activity at a range of RTV doses. The note with it: for AUCinf: MDZ 1 mg IV, mean. As to the method: as §1, §2
For MDZ: AUC0-last, AUCinf, % AUCexp, Clast, Tlast, λz, T1/2, CL and Vz.
as §3

Series [13] is described as follows: Example 3: RTV pharmacokinetics when dosed with Compound 1. Format: in vivo, human. As to conditions: RTV 100 mg QD with Compound 1; mean (CV %). The method, then: as §1, §2, §3
Setting [14] is: after administration of Compound 1+RTV.

Where two headings read alike, the source gives them in different places.

Regarding `COc1cc2c(cc1Cc1cccc(Cl)c1F)c(=O)c(C(=O)O)cn2[C@H](CO)C(C)C` [Compound 1, 6-(3-chloro-2-fluorobenzyl)-1-[(2S)-1-hydroxy-3-methylbutan-2-yl]-7-methoxy-4-oxo-1,4-dihydroquinoline-3-carboxylic acid], the “mean steady-state systemic exposure (AUCtau, Day 10) lower compared with mean exposure (AUCinf) after a single dose (Day 1)” value in [1] (Compound 1 alone, indicating autoinduction) is recorded as “approximately 20%”. Further, the exposure (AUC) in [1] (both sexes, human, plasma, po) turned out to be 908 ng·h/mL. In addition, in series [2] (Compound 1 alone and Compound 1+RTV, whole study), the serious adverse events entry is on record as “No serious adverse events occurred”. Also, in series [2] (setting [14]), the “subjects with treatment-emergent AEs considered related to study drugs” value was 5 of 12 subjects; the “treatment-related AEs reported in more than one subject” value was “nausea (three subjects), vomiting (two subjects), headache (two subjects), and pruritus (two subjects)”. Further, the “subjects with treatment-emergent AEs considered related to study drugs” value in series [2] (after administration of Compound 1 alone) is 2 of 12 subjects. Moreover, the tolerability entry in [2] (concurrent oral Compound 1 100 mg twice daily and RTV 100 mg twice daily for up to 10 days) is “generally well-tolerated”. Besides, the “subjects experiencing nausea (most frequent treatment-emergent AE)” value in [2] (during administration of Compound 1+RTV) turned out to be 4 subjects. In series [2] (during administration of Compound 1+RTV, each 100 mg twice daily), the “subjects with treatment-emergent adverse events” value is on record as 7 of 12 subjects. Also, the “subjects with treatment-emergent adverse events” value in series [2] (during administration of Compound 1 alone, 100 mg twice daily) is 4 of 12 subjects. Besides, the tolerability result in series [2] (oral Compound 1 100 mg twice daily for up to 20 days) was “well tolerated”. The “Emax (reduction from baseline, simple Emax model)” value in series [3] (Compound 1 Ctau versus HIV-1 RNA reduction) was found to be 2.32 log10 copies/mL. In addition, in series [3] (all dose levels, 10 consecutive days), the “HIV-1 RNA levels compared with placebo” value is on record as “significantly reduced HIV-1 RNA levels”. In [4], the enhancement of exposure lay within 10 to 16 fold. Besides, in series [5], the “changes in hematology and urinalysis findings, vital signs, body weight, electrocardiogram and ophthalmic examinations” value is reported as “No clinically relevant changes”; the “dose interruptions, discontinuations, or serious adverse events” value is listed as “no dose interruptions, discontinuations, or serious adverse events”; the tolerability result is listed as “generally well tolerated”. The AUCtau in series [6] stood at 20600 ng·h/mL. In series [7], the “PK (Cmax, AUCtau, Ctau) during co-administration versus alone” value is listed as “unaffected”. The “serious adverse events or discontinuations due to AEs” value in series [8] was “no serious adverse events”. For the same compound, the Half-life result in series [9] (human, in vivo) is “supporting once daily dosing”. Also, in series [10], the “AUC0-inf higher in the fed state compared to the fasted state” value is on record as 2.69 fold and the “Cmax higher in the fed state compared to the fasted state” value is recorded as 3.30 fold. Besides, in series [11], the “electrocardiogram (ECG) changes” value is reported as “No clinically significant electrocardiogram (ECG) changes were noted”; the safety and tolerability entry was “safe and well tolerated with no serious adverse events”.

For `Cc1cn([C@H]2C[C@H](N=[N+]=[N-])[C@@H](CO[C@@H]3O[C@H](C(=O)O)[C@@H](O)[C@H](O)[C@H]3O)O2)c(=O)[nH]c1=O` [G-ZDV], the “AUCtau, Cmax, Ctau (Compound 1 only) 90% CI of GMR (co-administration:alone)” value in series [9] is recorded as “within predefined PK equivalence bounds”.

As for `Cc1ncc2n1-c1ccc(Cl)cc1C(c1ccccc1F)=NC2` [MDZ, midazolam], the AUCinf turned out to be 101 ng·h/mL in series [12] (+20 mg RTV QD with Compound 1 125 mg); 145 ng·h/mL in [12] (+50 mg RTV QD with Compound 1 125 mg); 219 ng·h/mL in series [12] (+100 mg RTV QD with Compound 1 125 mg); 146 ng·h/mL in series [12] (+200 mg RTV QD with Compound 1 125 mg); 31.0 ng·h/mL in series [12] (MDZ alone (Day 1)). In addition, the CL worked out at 2.38 mL/min/kg in series [12] (MDZ +20 mg RTV); 1.5 mL/min/kg in series [12] (MDZ +50 mg RTV); 1.2 mL/min/kg in series [12] (MDZ +100 mg RTV); 1.45 mL/min/kg in series [12] (MDZ +200 mg RTV); 7.45 mL/min/kg in [12] (MDZ alone). In addition, the Clast is 1.53 ng/mL in series [12] (MDZ +20 mg RTV); 2.51 ng/mL in series [12] (MDZ +50 mg RTV); 3.34 ng/mL in [12] (MDZ +100 mg RTV); 2.58 ng/mL in series [12] (MDZ +200 mg RTV); 0.20 ng/mL in series [12] (MDZ alone). Besides, the Half-life was found to be 7.83 h in series [12] (MDZ +20 mg RTV); 14.4 h in [12] (MDZ +50 mg RTV); 22.4 h in series [12] (MDZ +100 mg RTV); 15.2 h in [12] (MDZ +200 mg RTV); 3.97 h in series [12] (MDZ alone).

For `CC(C)c1nc(CN(C)C(=O)N[C@H](C(=O)N[C@@H](Cc2ccccc2)C[C@H](O)[C@H](Cc2ccccc2)NC(=O)OCc2cncs2)C(C)C)cs1` [Ritonavir, (2S,3S,5S)-5-(N—(N—((N-Methyl-N-((2-isopropyl-4-thiazolyl)methyl)amino)-carbonyl)-L-valinyl)amino)-2-(N-((5-thiazolyl)methoxycarbonyl)amino)-1,6-diphenyl-3-hydroxyhexane], in series [13], the Half-life was 6.34 (18.4) hr.

Consider `Cc1cn([C@H]2C[C@H](N=[N+]=[N-])[C@@H](CO)O2)c(=O)[nH]c1=O` [ZDV, zidovudine, reference compound], for which the “AUCtau, Cmax, Ctau (Compound 1 only) 90% CI of GMR (co-administration:alone)” value in series [9] was “within predefined PK equivalence bounds”.
